Source: patent US20180099931A1 (AbbVie S.à.r.l., priority 2016, published 2018)
Where two headings read alike, the source gives them in different places.

Biological target: T1, F508delCFTR (Homo sapiens, UniProt P13569, DEL508-508)
T1 construct: expressed in transfected cells; host or cells: CFBE41o- human lung-derived epithelial cells (CFBE4lo-F508delCFTR-HRP), doxycycline-inducible
Assay: Cell Surface Expression-Horse Radish Peroxidase (CSE-HRP) Assay;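 for Maximum % activity (with co-corrector): co-corrector and positive control are both the same reference corrector at 2 µM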;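 for Maximum % activity (without co-corrector): percent of the 2 µM on-plate positive control corrector response above DMSO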
Assay type: cell-based
Details: for Maximum % activity (with co-corrector) / Emax: maximum at any tested concentration, normalized to on-plate positive control; for Emax: read-out: Maximum % activity (without co-corrector)

[1] = CSE-HRP, test compound without co-corrector, read-out: EC50 (without co-corrector)
[2] = CSE-HRP, with co-corrector (2 μM of 3-[(2R,4R)-4-({[1-(2,2-difluoro-1,3-benzodioxol-5-yl)cyclopropyl]carbonyl}amino)-7-methoxy-3,4-dihydro-2H-chromen-2-yl]benzoic acid), read-out: EC50 (with co-corrector)
[3] = CSE-HRP, with co-corrector (2 μM)

T1 sequence (P13569 with tags, fused parts or gaps DEL508-508): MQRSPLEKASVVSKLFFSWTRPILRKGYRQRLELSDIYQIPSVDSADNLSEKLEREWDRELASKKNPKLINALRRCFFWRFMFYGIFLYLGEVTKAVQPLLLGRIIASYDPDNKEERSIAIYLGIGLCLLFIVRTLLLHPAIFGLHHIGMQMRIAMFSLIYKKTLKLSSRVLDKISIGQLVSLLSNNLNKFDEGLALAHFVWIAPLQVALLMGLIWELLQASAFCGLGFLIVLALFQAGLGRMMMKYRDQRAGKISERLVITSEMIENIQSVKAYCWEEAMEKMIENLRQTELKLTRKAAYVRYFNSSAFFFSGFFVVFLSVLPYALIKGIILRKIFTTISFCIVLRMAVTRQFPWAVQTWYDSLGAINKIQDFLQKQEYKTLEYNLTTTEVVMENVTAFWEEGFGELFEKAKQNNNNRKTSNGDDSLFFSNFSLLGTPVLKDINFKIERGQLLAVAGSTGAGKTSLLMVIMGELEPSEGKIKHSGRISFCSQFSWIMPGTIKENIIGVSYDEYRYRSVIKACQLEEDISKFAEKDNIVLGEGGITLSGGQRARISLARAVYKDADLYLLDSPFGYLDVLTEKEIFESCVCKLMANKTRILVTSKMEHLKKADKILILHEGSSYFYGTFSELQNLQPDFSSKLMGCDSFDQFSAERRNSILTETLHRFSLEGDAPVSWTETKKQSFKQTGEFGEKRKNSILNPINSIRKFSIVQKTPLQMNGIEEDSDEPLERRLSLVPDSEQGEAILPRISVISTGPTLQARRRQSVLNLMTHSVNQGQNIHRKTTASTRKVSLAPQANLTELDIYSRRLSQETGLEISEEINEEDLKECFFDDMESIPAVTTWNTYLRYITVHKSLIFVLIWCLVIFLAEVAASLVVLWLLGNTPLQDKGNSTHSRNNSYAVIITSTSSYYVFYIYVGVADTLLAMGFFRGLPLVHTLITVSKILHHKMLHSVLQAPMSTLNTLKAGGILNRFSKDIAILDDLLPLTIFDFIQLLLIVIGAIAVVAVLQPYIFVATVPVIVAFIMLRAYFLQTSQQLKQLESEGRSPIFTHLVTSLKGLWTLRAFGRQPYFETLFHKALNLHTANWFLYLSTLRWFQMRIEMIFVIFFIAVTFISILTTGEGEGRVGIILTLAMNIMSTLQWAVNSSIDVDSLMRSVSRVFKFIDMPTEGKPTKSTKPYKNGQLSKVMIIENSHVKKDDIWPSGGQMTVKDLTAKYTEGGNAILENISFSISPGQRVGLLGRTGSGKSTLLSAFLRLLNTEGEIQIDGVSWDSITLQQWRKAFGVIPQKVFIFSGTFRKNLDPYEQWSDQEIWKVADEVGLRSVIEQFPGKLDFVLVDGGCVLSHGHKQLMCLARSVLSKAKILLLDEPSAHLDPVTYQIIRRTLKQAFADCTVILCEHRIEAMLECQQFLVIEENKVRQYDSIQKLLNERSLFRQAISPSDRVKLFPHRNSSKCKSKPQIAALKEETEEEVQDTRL

SMILES | EC50 [1] | EC50 [2] | Maximum % activity (with co-corrector) [3] | Emax (CSE-HRP, without co-corrector) | Emax (test compound without co-corrector) | EC50 (test compound without co-corrector, read-out: EC50 (without co-corrector)) | Maximum % activity (with co-corrector) (with co-corrector (2 μM of 3-[(2R,4R)-4-({[1-(2,2-difluoro-1,3-benzodioxol-5-yl)cyclopropyl]carbonyl}amino)-7-methoxy-3,4-dihydro-2H-chromen-2-yl]benzoic acid)) | EC50 (with co-corrector (2 μM of 3-[(2R,4R)-4-({[1-(2,2-difluoro-1,3-benzodioxol-5-yl)cyclopropyl]carbonyl}amino)-7-methoxy-3,4-dihydro-2H-chromen-2-yl]benzoic acid), read-out: EC50 (with co-corrector))
CCc1ccccc1[C@H]1[C@@H](NCc2cc(C3CCC3)cnc2OC)[C@H](C(C)(C)C)[C@@H](C(=O)O)N1C(=O)[C@@H]1CCCCO1 [Example I-297] | 1000 to 10000 nM | < 1000 nM | +++ (≥350) | > 200% | – | – | – | –
COc1ncc(C(F)(F)F)cc1CN[C@H]1[C@H](C(C)(C)C)[C@@H](C(=O)O)N(C(=O)[C@@H]2CCCCO2)[C@H]1c1cccc2c1OCC2 [Example I-298] | 1000 to 10000 nM | 1000 to 10000 nM | +++ (≥350) | 100 to 200% | – | – | – | –
COc1ccc(C(F)(F)F)cc1CN[C@H]1[C@H](C(C)(C)C)[C@@H](C(=O)O)N(C(=O)[C@@H]2CCCCO2)[C@H]1c1cccc2c1OCC2 [Example I-299] | 1000 to 10000 nM | 1000 to 10000 nM | +++ (≥350) | 100 to 200% | – | – | – | –
COc1cc(C(F)(F)F)ccc1CN[C@H]1[C@H](C(C)(C)C)[C@@H](C(=O)O)N(C(=O)[C@@H]2CCCCO2)[C@H]1c1cccc2c1OCC2 [Example I-300] | 1000 to 10000 nM | 1000 to 10000 nM | +++ (≥350) | > 200% | – | – | – | –
COc1ncc(C2CCC2)cc1CN[C@H]1[C@H](C(C)(C)C)[C@@H](C(=O)O)N(C(=O)[C@@H]2CCCCO2)[C@H]1c1cccc2c1OCC2 [Example I-301] | 1000 to 10000 nM | 1000 to 10000 nM | +++ (≥350) | > 200% | – | – | – | –
COc1cc2c(cc1CN[C@H]1[C@H](C(C)(C)C)[C@@H](C(=O)O)N(C(=O)[C@@H]3CCCCO3)[C@H]1c1cccc3c1OCC3)CCCC2 [Example I-302] | 1000 to 10000 nM | 1000 to 10000 nM | +++ (≥350) | 100 to 200% | – | – | – | –
COc1cccc(S(=O)(=O)N2[C@H](C(=O)O)[C@@H](C(C)(C)C)[C@H](NCc3cc(C4CCC4)cnc3OC)[C@@H]2c2ccccc2C(C)C)n1 [Example I-303] | 1000 to 10000 nM | 1000 to 10000 nM | +++ (≥350) | < 100% | – | – | – | –
COc1ccc(C2(C)CCC2)cc1CN[C@H]1[C@H](C(C)(C)C)[C@@H](C(=O)O)N(C(=O)[C@@H]2CCCCO2)[C@H]1c1ccccc1C(C)C [Example I-304] | < 1000 nM | < 1000 nM | +++ (≥350) | > 200% | – | – | – | –
CC(C)c1ccccc1[C@H]1[C@@H](NCc2cccc3c2OC(C)(C)C3)[C@H](C(C)(C)C)[C@@H](C(=O)O)N1C(=O)[C@@H]1CCCO1 [Example I-305] | 1000 to 10000 nM | 1000 to 10000 nM | +++ (≥350) | 100 to 200% | – | – | – | –
CC(C)c1ccccc1[C@H]1[C@@H](NCc2cccc3c2OC(C)(C)C3)[C@H](C(C)(C)C)[C@@H](C(=O)O)N1C(=O)[C@@H]1CCCCO1 [Example I-306] | < 1000 nM | < 1000 nM | +++ (≥350) | > 200% | – | – | – | –
COc1ncc(C2CCC2)cc1CN[C@H]1[C@H](C(C)(C)C)[C@@H](C(=O)O)N(C(=O)C2CCCCC2)[C@H]1c1cccc2c1OC(C)(C)C2 [Example I-307] | < 1000 nM | < 1000 nM | +++ (≥350) | > 200% | – | – | – | –
COc1ccc(Cl)c2c1CN([C@H]1[C@H](C(C)(C)C)[C@@H](C(=O)O)N(C(=O)[C@@H]3CCCCO3)[C@H]1c1ccccc1C(C)C)C2 [Example I-308] | 1000 to 10000 nM | < 1000 nM | +++ (≥350) | < 100% | – | – | – | –
COc1ccc(C(F)(F)F)cc1OCCN[C@H]1[C@H](C(C)(C)C)[C@@H](C(=O)O)N(C(=O)OC(C)C)[C@H]1c1cccnc1OC(C)C [Example I-309] | 1000 to 10000 nM | 1000 to 10000 nM | +++ (≥350) | 100 to 200% | – | – | – | –
COc1ccc(C(C)(C)C)cc1CN[C@H]1[C@H](C(C)(C)C)[C@@H](C(=O)O)N(C(=O)C2CCCCC2)[C@H]1c1ccccc1O [Example I-310] | 1000 to 10000 nM | < 1000 nM | +++ (≥350) | > 200% | – | – | – | –
COc1cccc(-c2cnc(OC)c(CN[C@H]3[C@H](C(C)(C)C)[C@@H](C(=O)O)N(C(=O)C4CCCCC4)[C@H]3c3ccccc3)c2)c1 [Example II-341, (2S,3S,4S,5S)-3-(tert-butyl)-1-(cyclohexanecarbonyl)-4-(((2-methoxy-5-(3-methoxyphenyl)pyridin-3-yl)methyl)amino)-5-phenylpyrrolidine-2-carboxylic acid] | – | – | – | – | 100 to 200% | < 1000 nM | +++ (≥350) | < 1000 nM
Cc1cc(C(F)(F)F)cc(N[C@@H]2[C@@H](C)[C@H](C(=O)O)N(C(=O)N(C(C)C)C(C)C)[C@@H]2c2ccccc2)n1 [II-11] | 1000 to 10000 nM | 1000 to 10000 nM | +++ (≥350) | < 100% | – | – | – | –
COc1ccc(C(F)(F)F)cc1CN[C@H]1[C@H](C(C)(C)C)[C@@H](C(=O)O)N(C(=O)[C@H](OC)c2ccccc2)[C@H]1c1ccccc1N(C)C [II-62] | 1000 to 10000 nM | 1000 to 10000 nM | +++ (≥350) | > 200% | – | – | – | –
COc1ccc(Cl)cc1CN[C@H]1[C@H](C(C)(C)C)[C@@H](C(=O)O)N(C(=O)[C@H](OC)c2ccccc2)[C@H]1c1ccccc1N(C)C [II-63] | 1000 to 10000 nM | 1000 to 10000 nM | +++ (≥350) | > 200% | – | – | – | –
COc1ccc(C(F)(F)F)cc1CN[C@@H]1[C@@H](C(C)(C)C)[C@H](C(=O)O)N(C(=O)[C@@H](OC)c2ccccc2)[C@@H]1c1ccccc1 [II-64] | > 10000 nM | 1000 to 10000 nM | ++ (≥150 and <350) | < 100% | – | – | – | –
COc1cc(C(F)(F)F)ccc1CN[C@H]1[C@H](C(C)(C)C)[C@@H](C(=O)O)N(C(=O)[C@@H](OC)c2ccccc2)[C@H]1c1ccccc1 [II-65] | 1000 to 10000 nM | 1000 to 10000 nM | +++ (≥350) | 100 to 200% | – | – | – | –
COc1cc(C(F)(F)F)ccc1CN[C@H]1[C@H](C(C)(C)C)[C@@H](C(=O)O)N(C(=O)[C@H]2CCCCO2)[C@H]1c1ccccc1 [II-81] | 1000 to 10000 nM | 1000 to 10000 nM | +++ (≥350) | 100 to 200% | – | – | – | –
COc1cc(C(F)(F)F)ccc1CN[C@@H]1[C@@H](C(C)(C)C)[C@H](C(=O)O)N(C(=O)[C@@H]2CCCCO2)[C@@H]1c1ccccc1 [II-82] | 1000 to 10000 nM | 1000 to 10000 nM | +++ (≥350) | 100 to 200% | – | – | – | –
COc1ncc(C(F)(F)F)cc1CN[C@H]1[C@H](C(C)(C)C)[C@@H](C(=O)O)N(C(=O)[C@H](OC)c2ccccc2)[C@H]1c1ccccc1 [II-83] | 1000 to 10000 nM | < 1000 nM | +++ (≥350) | > 200% | – | – | – | –
COc1cc(C(F)(F)F)ccc1CN[C@H]1[C@H](C(C)(C)C)[C@@H](C(=O)O)N(C(=O)[C@H](OC)c2ccccc2)[C@H]1c1cccnc1OC [II-84] | 1000 to 10000 nM | 1000 to 10000 nM | +++ (≥350) | 100 to 200% | – | – | – | –
COc1cc(C(F)(F)F)ccc1CN[C@H]1[C@H](C(C)(C)C)[C@@H](C(=O)O)N(C(=O)[C@H](OC)c2ccccc2)[C@H]1c1cccnc1N(C)C [II-87] | 1000 to 10000 nM | 1000 to 10000 nM | +++ (≥350) | 100 to 200% | – | – | – | –
COc1cc(Cl)ccc1CN[C@H]1[C@H](C(C)(C)C)[C@@H](C(=O)O)N(C(=O)C2CCCCC2)[C@H]1c1cccnc1OC [II-91] | 1000 to 10000 nM | 1000 to 10000 nM | +++ (≥350) | 100 to 200% | – | – | – | –
